Assay results reported in US20260007621A1, “Pharmaceutical Combinations for Treatment” (priority 2022, published 2026).
“Also recorded” adds a separate entry of the source.

What was measured:
[1] = system: recurring coughs, sneezing, headache, runny nose, pain, cold, fever, sore throat, sinus pressure; assay: Clinical study: one subject rates relief from new pharmaceutical combinations against previous medication; format: in vivo, human; details: 2.5 mg cetirizine, 5 mg bilastine, 2.5 mg loratadine or 30 mg fexofenadine, each dose after 3 hours; versus 10, 20, 10 or 120 mg once
Method: The subject had recurring coughs, sneezing, headache, runny nose, pain, cold, fever, sore throat, sinus pressure etc. They took medication including DM+GFN combination as well as antihistamines to cure it, namely: • a. Mucinex Expectorant Tablets (600 mg GFN/dose): 1 dose per 12 hours; • b. […] Labixten (20 mg Bilastine/dose): 1 dose per 24 hours. […] On each recurrence of cough and other symptoms a new pharmaceutical combination was given. The subject would then provide feedback on the improvement of their symptoms and rate the performance of the pharmaceutical composition in comparison to their previous medication experience.

[2] = system: therapeutic relief of cough, cold and allergy symptoms; assay: Inventor's findings on relief from GFN or antihistamines combined with IBF+APAP (and PE); no method given; format: in vivo, human; details: for therapeutic relief expressed as GFN amount: 'it is suggested'
Method: A normal 4 hourly dosage of DM and GFN is 20 mg and 400 mg respectively.

[3] = 6.25 mg PE administered with 500 mg APAP; cited from earlier work
[4] = in vivo; cited from earlier work

CC(C)(C(=O)O)c1ccc(C(O)CCCN2CCC(C(O)(c3ccccc3)c3ccccc3)CC2)cc1 (stereo not shown) [fexofenadine]
quarter dose administered 4 times daily versus normal full 24-hour dose of the same ingredient at once [1]: better effect; also recorded: performed therapeutically better

COc1ccccc1OCC(O)CO (stereo not shown) [GFN, guaifenesin]
therapeutic relief expressed as GFN amount ([2]; 100 mg GFN taken with 175-200 mg IBF and 275-575 mg APAP): 143 mg GFN | therapeutic relief expressed as GFN amount ([2]; 200 mg GFN taken with 175-200 mg IBF and 275-575 mg APAP): 286 mg GFN | increase in effectiveness of GFN when combined with IBF+APAP ([2]; in vivo): about 45% | GFN dose that, combined with IBF+APAP, gives the relief of a normal 4 hourly dosage of 20 mg DM and 400 mg GFN ([2]; without DM): 280 mg

CNC[C@H](O)c1cccc(O)c1 [PE, Phenylephrine]
PE dosage of similar effect [3]: ~10 mg | effectiveness compared with PSE [4]: not as effective as PSE

CCOCCn1c(C2CCN(CCc3ccc(C(C)(C)C(=O)O)cc3)CC2)nc2ccccc21 [bilastine]
quarter dose administered 4 times daily versus normal full 24-hour dose of the same ingredient at once [1]: better effect; also recorded: performed therapeutically better

O=C(O)COCCN1CCN(C(c2ccccc2)c2ccc(Cl)cc2)CC1 (stereo not shown) [cetirizine]
quarter dose administered 4 times daily versus normal full 24-hour dose of the same ingredient at once [1]: better effect; also recorded: performed therapeutically better

CCOC(=O)N1CCC(=C2c3ccc(Cl)cc3CCc3cccnc32)CC1 [loratadine]
quarter dose administered 4 times daily versus normal full 24-hour dose of the same ingredient at once [1]: better effect; also recorded: performed therapeutically better
